From US20240368178A1, “IMIDAZOCYCLIC COMPOUND AND APPLICATION THEREOF” (DONGBAO PURPLE STAR (HANGZHOU) BIOPHARMACEUTICAL CO., LTD., priority 2021, published 2024) come the findings set out here.

The subject of one data set is monkey liver cells. Briefly: HMS CLint (liver) hepatocyte metabolic stability, cynomolgus monkey. The class given is in vitro ADME. The following applies: cynomolgus monkey hepatocytes. On the procedure:
Experimental purpose: to test the metabolic stability of the test sample in human and rat liver cells.
• (1) test compound (10 mM), reference substance: 7-ethoxycoumarin (30 mM), 7-hydroxycoumarin (reference substance, 30 mM); • mouse hepatocytes with cell viability of 73.8%, supplier Cat No.: BioreclamationlVTM005052; • rat hepatocytes with cell viability of 78.3%, supplier Cat No.: BioreclamationlVTM00005-T; • canine hepatocytes with cell viability of 80.2%, supplier Cat No.: BioreclamationlVTM00205; • monkey liver cells with cell viability of 80.9%, supplier Cat No.: RILD HP—SXH-02M; • human hepatocytes with cell viability of 94.6%, supplier Cat No.: Bioreclamation IVTX008001. • (2) Buffer system:
Thawing medium: Williams' medium E containing 5% fetal bovine serum, 30% Percoll solution, and other auxiliary materials.
Incubation medium: Williams' medium E (without phenol red) containing 2 mM L-glutamine and 25 mM 4-(2-hydroxyethyl)-1-piperazineethanesulfonic acid.
Termination solution: acetonitrile containing 200 ng/mL tolbutamide and labetalol as internal standard. […]
The residual rates of the test compound and the control compound were determined using the following formula: […]
The elimination rate constant (k) of the test compound and the control compound in hepatocytes was calculated by plotting the logarithm of the residual rate against time. […]

Data set [1] is described as follows: In vivo PK parameter testing in cynomolgus monkeys. The arrangement: species or system cynomolgus monkey. The settings on record: male cynomolgus monkeys. As for the experimental part: (§1) Male SD rats and male cynomolgus monkeys were used as test animals, and the plasma concentration of the compound was determined and the pharmacokinetic behavior was evaluated after a single oral administration.
Two groups of healthy male cynomolgus monkeys (fasted) were administered by intravenous injection and oral gavage, each group with 2 monkeys. The vehicle was a 20% hydroxypropyl-β-cyclodextrin aqueous solution. The compound to be tested 002 was mixed with the vehicle, then vortexed, and sonicated to prepare clear solutions of 1.0 mg/mL and 2.0 mg/mL. The intravenous injection dose was 1.0 mg/kg, and the oral gavage dose was 2.0 mg/kg. The compound to be tested 003 was mixed with the vehicle, then vortexed, and sonicated to prepare clear solutions of 0.25 mg/mL and 10.0 mg/mL. The intravenous injection dose was 0.5 mg/kg, and the oral gavage dose was 10.0 mg/kg. After administration, the whole blood was collected at the time points of 0.083 hours, 0.25 hours, 0.5 hours, 1.0 hour, 2.0 hours, 4.0 hours, 8.0 hours, 12.0 hours, and 24.0 hours. Plasma was prepared from the whole blood and analyzed for drug concentration by LC-MS/MS. Parameter meaning: Cmax is the maximum plasma concentration; AUC is the exposure; T1/2 is the half-life; Vd is the apparent volume of distribution; Cl is the clearance rate; F % is the oral bioavailability.

The nature of data set [2]: In vivo PK parameter testing in rats. Also noted: species or system SD rat. The following applies: male SD rats. On the procedure: as §1
Two groups of healthy rats (fasted) were administered by intravenous injection (IV) and oral gavage (PO), each group with 2 rats. The vehicle was a mixture of 20% PEG400, 10% solutol, and 70% water. After mixing the compound to be tested with the vehicle, the mixture was vortexed and sonicated to prepare clear solutions of 0.2 mg/mL and 0.5 mg/mL. The intravenous injection dose for rats was 1.0 mg/kg, and the oral gavage dose was 5.0 mg/kg. After administration, the whole blood was collected at the time points of 0.083 hours, 0.25 hours, 0.5 hours, 1.0 hour, 2.0 hours, 4.0 hours, 8.0 hours, 12.0 hours, and 24.0 hours. Plasma was prepared from the whole blood and analyzed for drug concentration by LC-MS/MS.

Molecules are shown by their SMILES. Some results are limits rather than exact numbers.

Consider `C[C@]1(c2ccc(Cl)cn2)Oc2cccc(C3CCN(Cc4nc5sc(C(=O)O)cc5n4C[C@@H]4CCO4)CC3)c2O1` (single isomer, unassigned) [Compound 002], for which the “HMS Cynomolgus monkeys” value in the data set on monkey liver cells was below 1.38 L/h/kg. Besides, the F % in data set [1] (IV 1.0 mg/kg, PO 2.0 mg/kg) is 35.3%; in data set [2] (IV 1.0 mg/kg, PO 5.0 mg/kg) it was 27.1%. For the same molecule, the Cl stood at 0.0303 L/h/kg in data set [1] (intravenous 1.0 mg/kg) and 0.72 L/h/kg in data set [2] (intravenous 1.0 mg/kg). Also, the results for the Vd in data set [1] (intravenous 1.0 mg/kg) and in data set [2] (intravenous 1.0 mg/kg) were 0.155 L/kg and 0.392 L/kg, respectively. Besides, the entries for the “AUC (PO)” value in data set [1] (oral gavage 2.0 mg/kg) and in data set [2] (oral gavage 5.0 mg/kg) were 42.966 µM·h and 3.439 µM·h, respectively. Further, the “T1/2 (PO)” value in data set [1] (oral gavage 2.0 mg/kg) is reported as 11.3 h; in data set [2] (oral gavage 5.0 mg/kg), 1.61 h.

`C[C@@]1(c2ccc(Cl)cn2)Oc2cccc(N3CCN(Cc4nc5sc(C(=O)O)cc5n4C[C@H]4CCO4)CC3)c2O1` [Compound 003]: in the data set with monkey liver cells, the “HMS Cynomolgus monkeys” value was found to be 2.5 L/h/kg. In data set [1] (IV 0.5 mg/kg, PO 10.0 mg/kg), the F % was found to be 23.6%. In data set [1] (intravenous 0.5 mg/kg), this molecule came in with a Cl of 0.171 L/h/kg and a Vd of 0.489 L/kg. Besides, in data set [1] (oral gavage 10.0 mg/kg), the “AUC (PO)” value amounted to 10.716 µM·h and the “T1/2 (PO)” value came out at 8.52 h.

For orientation: Vd means a proportionality between amount in the body and measured concentration, not a real space.
